Broadly, the mortality is the percentage killed.

Like-named read-outs stand apart in the source and are kept apart here.

Assay [1] has as its system human hepatocarcinoma cells (HepG2). Nature of the assay: cells. As to conditions: HepG2, read-out: cell mortality. How it is done: The tumor cell line HepG2 was provided by ATCC (American Type Cell Culture—Mannas, Va., No. HB-8065) and subsequently developed in our laboratory. The cells were cultured in complete medium containing MEM added with 10% FCS (bovine fetal serum), 1 mM Na-pyruvate, 2 mM L-glutamine, 0.1 mM non-essential amino acids and antibiotics (penicillin/streptomycin). The medium, culture products and reagents were purchased from Hyclone-Celbio (Milan, Italy). The experimental design provided for the use of ST1326 and of known antineoplastic drugs, such as doxorubicin, against which the HepG2 cells show a high resistance, to determine the agonist action of the compound. […] In this experiment, the following compounds were added to hemiconfluent HepG2 cells in 96 well plates: • 0.25, 0.5, 5.0 μg/mL doxorubicin; • 0.1 μM ST in combination with 0.25 μg/mL doxorubicin.
After 24 hr incubation, the medium containing different concentrations of doxorubicin and the ST/doxorubicin combination was removed and the cells were washed with complete medium. After 3-day treatment, the antineoplastic effect of the test compound was determined in comparison with control cells incubated in complete medium for the same period of time.
The cell mortality was calculated as the percentage (mean±standard deviation) over 10.000 acquired events.

For assay [2] the test system is unchanged. Briefly: Cell mortality of HepG2 cells by propidium iodide flow cytofluorimetry. The following applies: Homo sapiens. Type of assay: cell-based. How it is done: (§1) The cells were seeded in 60 mm-diameter Petri dishes. After plating the cells were grown for 24 hours prior to their treatment.
(§2) In this experiment, increasing amounts of the test molecule were added to hemiconfluent HepG2 cells (Kogure et al., Cancer Chemother. Pharmacol., 2003; DOI. 10.1007/s); the antiproliferative and proapoptotic effects were determined at different times from cell seeding.
(§3) The experimental design in some cases provided for the addition of the test compound once the cell culture had been prepared, in other cases the cultures were exposed to the compound every 24 hours after suitably removing the conditioned medium and washing the cells with new (complete) medium. The cells were counted in a Bürker chamber after suitable dilution with a vital dye to visualize the living cells. In particular, the trypan blue exclusion method was used for cell count at 0, 24 and 48 hour treatment. At least 10 cell counts were performed for each experiment and each treatment was carried out in quadruple.
(§4) A further analysis involved cytofluorimetry utilizing propidium iodide as a marker for […] cells. The test compound was assayed vs. the CTP inhibitor etomoxir to verify whether the tumoricidal effect could be attributed to CPT-1 inhibition or involved novel mechanisms.
In addition, assays on cell viability were carried out using flow cytofluorimetry techniques.
In further experiments the test molecule was added every 24 hours, as above described, after suitably removing the surnatants and washing the cultures with complete medium. […] In the control, the surnatant was eliminated and complete medium alone was added to the cultures.

For assay [3] the test system is unchanged. Briefly: HepG2 cell count (trypan blue exclusion), antiproliferative and tumoricidal effect. The format is cell-based. As for the experimental part: as §1, §2, §3, §4
The data relating to cell viability are expressed as percentage on the number of viable cells from control cultures (=100%). (E=etomoxir; ST1326=tested compound). […] At the same concentrations etomoxir was ineffective.

On to `COc1cccc2c1C(=O)c1c(O)c3c(c(O)c1C2=O)C[C@@](O)(C(=O)CO)C[C@@H]3O[C@H]1C[C@H](N)[C@H](O)[C@H](C)O1` [Doxorubicina, doxorubicin], for which, in assay [1], the mortality at 0.25 µg/mL is 11.2 ± 1.5%, the mortality at 0.5 µg/mL was 22.7 ± 3.5% and the mortality at 5 µg/mL is 48.6 ± 4.1%.
For the compound `CCOC(=O)[C@@]1(CCCCCCOc2ccc(Cl)cc2)CO1` [Etomoxir, etomoxir, reference compound], the mortality at 5 µM turned out to be 10.8 ± 1.65% in assay [2] (HepG2, 24 h, read-out: cell mortality, HepG2, 5 μM, treated only once (time 0), 24 hours); 11.8 ± 0.4% in assay [2] (HepG2, 48 h, read-out: cell mortality, HepG2, 5 μM, treated only once (time 0), 48 hours); 10.1 ± 2.1% in assay [2] (HepG2, 72 h, read-out: cell mortality, HepG2, 5 μM, treated only once (time 0), 72 hours); 10.2 ± 1.7% in assay [2] (HepG2, read-out: cell mortality, HepG2, 5 μM added every 24 hours, 48 hours (second addition)); 12.6 ± 1.1% in assay [2] (HepG2, read-out: cell mortality, HepG2, 5 μM added every 24 hours, 72 hours (third addition)). Besides, the mortality at 20 µM was determined as 13 ± 1.07% in assay [2] (HepG2, 24 h, read-out: cell mortality, HepG2, 20 μM, treated only once (time 0), 24 hours); 11.2 ± 1.3% in assay [2] (HepG2, 48 h, read-out: cell mortality, HepG2, 20 μM, treated only once (time 0), 48 hours); 11.7 ± 1.3% in assay [2] (HepG2, 72 h, read-out: cell mortality, HepG2, 20 μM, treated only once (time 0), 72 hours); 13.9 ± 1.2% in assay [2] (HepG2, read-out: cell mortality, HepG2, 20 μM added every 24 hours, 48 hours (second addition)); 14.1 ± 0.9% in assay [2] (HepG2, read-out: cell mortality, HepG2, 20 μM added every 24 hours, 72 hours (third addition)). In addition, the “number of viable cells versus control cultures (FIGURE)” value in assay [3] (HepG2, less than 10 μM, after 24 hours) was “ineffective”. Also, in assay [3] (tumor cell lines, same experimental conditions for etomoxir and compounds (I)), the “antiproliferative and tumoricidal activity in vitro” value is reported as “did not show any antiproliferative or tumoricidal activity”.

The values above are taken from US8314144B2, “Compounds having antitumor activity” (Defiante Farmaceutica, S.A., priority 2004, dated 2012).
